Values quoted from earlier work, collected in patent US7517540B2, “Cranberry seed oil extract and compositions containing components thereof” (priority 1999, dated 2009).

Key:
[1] = system: MCF-7; settings: for IC50, inhibition of proliferation of MCF-7: MCF-7 (estrogen receptor-positive), combinations with tamoxifen 1:1; for Inhibition of proliferation, MCF-7 (Table 5): alone, 1:1 or 1:1:1 combinations
[2] = system: MDA-MB-435; settings: for IC50, inhibition of proliferation of MDA-MB-435: MDA-MB-435 (estrogen receptor-negative), combinations with tamoxifen 1:1; for Inhibition of proliferation, MDA-MB-435 (Table 5): alone, 1:1 or 1:1:1 combinations
[3] = fed to hypercholesterolemic chicken

## CC(C)=CCC/C(C)=C/CC/C(C)=C/CC[C@]1(C)CCc2cc(O)cc(C)c2O1 [δ-Tocotrienol]
[1]
  IC50, inhibition of proliferation of MCF-7: 2 ± 0.05 µg/mL
[2]
  IC50, inhibition of proliferation of MDA-MB-435: 90 ± 3 µg/mL
[3]
  Hypocholesterolemic potency compared: more potently hypocholesterolemic than α-tocopherol, TRF, or α-tocotrienol

## COc1ccc(-c2cc(=O)c3c(OC)c(OC)c(OC)c(OC)c3o2)cc1 [Tangeretin only, Tangeretin]
[1]
  Inhibition of proliferation, MCF-7 (Table 5): 0.4
[2]
  Inhibition of proliferation, MDA-MB-435 (Table 5): 0.5

## CC(C)=CCC/C(C)=C/CC/C(C)=C/CC[C@]1(C)CCc2cc(O)c(C)c(C)c2O1 [γ-Tocotrienol]
[1]
  IC50, inhibition of proliferation of MCF-7: 2 ± 0.1 µg/mL
  Inhibition of proliferation, MCF-7 (Table 5): 2
[2]
  IC50, inhibition of proliferation of MDA-MB-435: 30 ± 2 µg/mL
  Inhibition of proliferation, MDA-MB-435 (Table 5): 30
[3]
  Hypocholesterolemic potency compared: more potently hypocholesterolemic than α-tocopherol, TRF, or α-tocotrienol

## Cc1c(C)c2c(c(C)c1O)CC[C@@](C)(CCC[C@H](C)CCC[C@H](C)CCCC(C)C)O2 [α-Tocopherol]
[1]
  IC50, inhibition of proliferation of MCF-7: 125 ± 3 µg/mL
[2]
  IC50, inhibition of proliferation of MDA-MB-435: >1000 µg/mL

## CC(C)=CCC/C(C)=C/CC/C(C)=C/CC[C@]1(C)CCc2c(C)c(O)c(C)c(C)c2O1 [α-Tocotrienol]
[1]
  IC50, inhibition of proliferation of MCF-7: 6 ± 0.3 µg/mL
[2]
  IC50, inhibition of proliferation of MDA-MB-435: 90 ± 3 µg/mL
